Reference: PMC11858653, “Design, Synthesis and Bioactive Evaluation of Topo I/c-MYC Dual Inhibitors to Inhibit Oral Cancer via Regulating the PI3K/AKT/NF-κB Signaling Pathway” (Molecules, 2025)
Several values for one entry are separate records, joined by “and”; a condition that tells them apart may be missing. Equal values may be shown once. Entries after “also recorded” stand apart in the source; their conditions may differ.

What was measured:
[1] = test system: human oral cancer Cal27 xenograft tumor; experiment: In vivo antitumor activity, Cal27 xenograft; parameters: species or system BALB/c nude mice; conditions: for relative tumor proliferation rate / tumor suppression rate / tumor growth inhibition (TGI): 21 days
Description: (§1) Nude mouse organ and tumor tissues fixed with neutral formalin solution were paraffin-embedded according to the conventional processing method. Sections were cut to a thickness of approximately 5 μm, placed on glass slides and dewaxed in an oven at 60 °C, stained for H&E and immunohistochemistry and finally visualized with the Cytation 5 imaging system.
(§2) For this assay, 130 SPF-grade BALB/c mice (female, 4–6 weeks old, 18–20 g) were obtained from Chang Zhou Cavens Laboratory Animal Ltd. (Changzhou, China). The in vivo activity experiments were commissioned by Nanjing OG Pharmaceuticals, Co., Ltd. (Nanjing, China) All mice were housed in plastic cages, fed, and watered under standard conditions and air filtration (22 ± 2 °C; 12 h light/dark cycles). Under aseptic conditions, human oral cancer Cal27 cells were inoculated subcutaneously in the right axilla of BALB/c nude mice. When the tumors had grown to about 85 mm^3, 24 […] mice with good growth status and good homogeneity of tumor size were selected and randomly divided into the following four groups of six mice each: (1) the model group; (2) the low-dose group; (3) the high-dose group; and (4) the positive drug group. The drug dose in the low-dose group was 10 mg/kg, which was injected intraperitoneally once every other day, for the duration of 21 days of administration; the drug dose in the high-dose group was 20 mg/kg, which was injected intraperitoneally once every other day, for the duration of 21 days of administration; and the drug dose in the cisplatin group was 2 mg/kg, which was injected intraperitoneally once every other day, for the duration of 21 days of administration. Normal tissues of the heart, liver, spleen, lung and kidney and half of the tumor tissues were fixed with 4% formalin solution and embedded in paraffin for histological analysis; the other half of the tumor tissues were preserved in liquid nitrogen, and the supernatant was extracted after milling the tissues and detected by Western blot.

[2] = test system: SV-HUC-1; experiment: MTT assay, normal cell line SV-HUC-1; assay type: cell-based; conditions: SV-HUC1, 48 h, mean ± SD
Description: Having evaluated their Topo I inhibitory activity, the antiproliferative activity of the target compounds against some common human cancer cell lines (NCI-H460, A549, ACHN, Cal27 and MGC-803) and one normal cell line (SV-HUC-1) was tested via an MTT assay. TPT, the first Topo I inhibitor approved in clinics, and cisplatin (CDDP), a commonly selected anticancer drug for treating head and neck malignancies, were used as the positive controls.
Human oral cancer Cal27 cells were seeded in 96-well plates and incubated overnight in 180 μL of medium containing 10% Fetal Bovine Serum (Gibco, San Francisco, CA, USA). […] Then, 10 μL of 5 mg/mL MTT solution was added to each well and incubated at 37 °C for 4 h. After 4 h of incubation at 37 °C, the MTT-containing medium was removed and DMSO was added to each well and the absorbance at 570 nm and 630 nm was measured using a microplate reader (CYTATION 3, Burton, Westwood, NJ, USA). Survival/% = (mean OD of experimental group/mean OD of control group) × 100%. Each test was repeated at least three times.

[3] = test system: Cal27 cells; experiment: MDC staining for autophagy; assay type: cell-based, human; conditions: 24 h
Description: In order to determine whether compound 7be induced autophagy, Cal27 cells were incubated with compound 7be at different concentrations for 24 h. MDC staining was used to detect any MDC-positive vesicles in cells of Cal27 cells by confocal microscope (Figure 13a).

[4] = In vivo biological safety evaluation; parameters: species or system BALB/c nude mice
Description: as §1, §2

[5] = test system: Cal27 cells; experiment: Annexin V-FITC/PI apoptosis assay; assay type: cell-based, human; conditions: Cal27, 24 h, increased from 5.88%; treated with 1, 2, 3 and 4 μM
Description: Cal27 cells were treated with compound 7be for 24 h. Tumor cells were then digested and collected. The resulting cells were incubated with Annexin V/PI light-avoidance staining for 0.5 h. Finally, different stages of apoptosis populations of Cal27 cells were immediately analyzed by flow cytometry.

[6] = biological target: T1, Topo I (Homo sapiens, UniProt P11387); experiment: Cellular thermal shift assay (CETSA); assay type: cell-based; parameters: endogenous in cells; host or cells: Cal27; conditions: 8 μM
T1 sequence (P11387 1-765): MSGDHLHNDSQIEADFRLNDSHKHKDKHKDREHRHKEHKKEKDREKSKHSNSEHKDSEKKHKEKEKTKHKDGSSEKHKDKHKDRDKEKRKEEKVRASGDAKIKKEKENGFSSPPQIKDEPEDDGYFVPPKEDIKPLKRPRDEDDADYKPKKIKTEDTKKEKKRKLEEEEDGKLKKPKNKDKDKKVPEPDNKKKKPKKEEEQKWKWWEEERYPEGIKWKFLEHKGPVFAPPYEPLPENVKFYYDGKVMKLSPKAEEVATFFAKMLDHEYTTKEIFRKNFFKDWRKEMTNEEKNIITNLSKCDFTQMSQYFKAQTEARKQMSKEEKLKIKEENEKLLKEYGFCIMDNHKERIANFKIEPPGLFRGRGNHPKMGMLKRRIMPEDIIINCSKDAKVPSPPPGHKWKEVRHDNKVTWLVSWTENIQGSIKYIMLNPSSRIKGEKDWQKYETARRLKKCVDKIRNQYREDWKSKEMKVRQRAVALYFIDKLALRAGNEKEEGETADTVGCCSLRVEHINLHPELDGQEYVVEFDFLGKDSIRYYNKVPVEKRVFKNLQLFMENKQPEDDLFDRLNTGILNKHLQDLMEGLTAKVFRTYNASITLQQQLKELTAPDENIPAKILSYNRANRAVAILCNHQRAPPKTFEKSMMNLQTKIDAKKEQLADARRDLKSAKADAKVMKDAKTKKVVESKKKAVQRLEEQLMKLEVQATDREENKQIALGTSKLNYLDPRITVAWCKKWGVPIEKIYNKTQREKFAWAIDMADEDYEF
Description: For intact cell assays, Cal27 cells were treated with compound 7be (8 μM) for 3 h before collection and washing several times with PBS buffer to avoid excess compound residues. Each cell suspension was dispensed into different 0.2 mL PCR tubes and then denatured for 3 min at different temperatures on a PCR instrument, and the cells were freeze-thawed twice with liquid nitrogen. After centrifugation, the supernatant was collected, mixed with an appropriate amount of up-sampling buffer and boiled at 95 °C for 6 min. The supernatant was detected by Western blot. For cell lysate experiments, Cal27 cells were collected with RIPA lysis buffer. Then compound 7be (8 μM) was added to the supernatant and incubated at 25 °C for 2 h. After denaturation at different temperatures for 3 min, centrifugation was performed before collecting the supernatant, mixing with an appropriate amount of lysing buffer and boiling at 95 °C for 6 min, and then Western blot was performed to detect the supernatant.

[7] = 10 mg/kg i.p. once every other day
[8] = 20 mg/kg i.p. once every other day

Cc1cc(C)c2c(n1)S(=O)(=O)c1c-2nc(NCCN2CCCCC2)c2ccccc12 [7be, 7,9-Dimethyl-5-((2-(piperidin-1-yl)ethyl)amino) pyrido[3′,2′:4,5]thieno[3,2-c]isoquinoline 11,11-dioxide]
relative tumor proliferation rate [1, 7]: 52.0%
tumor suppression rate / tumor growth inhibition (TGI) [1, 7]: 48.53% and 48.5%
relative tumor proliferation rate [1, 8]: 34.1%
tumor suppression rate / tumor growth inhibition (TGI) [1, 8]: 64.7% and 64.73%
expressions of p62, COX-2 and Bcl-2 in tumor tissue ([1]; 20 mg/kg, Western blot of tumor tissue): decreased
percentage of Ki67-positive cells in tumor tissue ([1]; Ki67 immunostaining): decreased
IC50 [2]: 5.18 ± 1.77 µM
MDC staining fluorescence ([3]; Cal27, high concentrations (3 μM and 4 μM)): significant green fluorescence
MDC staining fluorescence ([3]; Cal27, low concentrations (1 μM and 2 μM)): weak green fluorescence
body weight of mice during treatment ([4]; 10 or 20 mg/kg i.p., 21 days): no significant decrease in body weight; also recorded: no considerable weight loss
organ weight of mice ([4]; end of treatment): no significant difference
H&E staining of major organs ([4]; heart, liver, spleen, lung, kidney): no lesions, degenerations or histopathological abnormalities
number of apoptotic cells (early and late apoptotic cells) [5]: 32.8%
thermal stability of Topo I protein, cell lysate ([6]; Cal27 lysate, 2 h, especially 52 to 56 °C): increased
thermal stability of Topo I protein, intact cells ([6]; intact Cal27 cells, 3 h): increase in thermal stability
